Results from US20090312411A1, “PREVENTING OR REDUCING RISK OF MISCARRIAGES” (New York Society for the Raptured and Crippled Maintaining …, priority 2008, published 2009).

Columns and labels:
neutrophils [1] = assay: Respiratory burst activity (ROS) in neutrophils, DHR flow cytometry; format: in vivo, mouse
Method: Respiratory burst activity in neutrophils. Intracellular reactive oxygen (ROS) production was assessed with dihydrorhodamine 123 (DHR, Sigma Chemical, St Louis, Mo.) by flow cytometry. This primarily non-fluorescent dye becomes fluorescent upon oxidation to rhodamine by ROS produced during the respiratory burst. DHR (10 μmol/L) was added to heparanized whole blood, and this mixture was incubated at 37° C. for 45 min. Red cells were lysed as described above and reactive-oxygen production was analyzed by […] in FL1.

PAR-2 = PAR-2 on peripheral blood neutrophils, two-color FACS; format: in vivo, mouse
Method: (§1) Protocol. TF expression on mouse neutrophils. To study the presence of PAR-2 on peripheral blood neutrophils, two-color FACS analysis was performed. For this purpose heparinized whole mouse blood was stained with FITC-labeled anti-mouse Ly-6G (Gr-1) for FL1 (BD Biosciences Pharmingen, CA) to identify neutrophils and biotinylated anti-PAR-2 antibody (Santa Cruz Biotechnology, Inc, Santa Cruz, Calif.) and streptavidin-PerCP (BD Biosciences Pharmingen, CA) as the FL3 fluorochrome. Red cells were lyzed with ACK buffer. Preparations were then incubated with SA-PerCP and analyzed by FACS using a FACscan (BD Biosciences, CA).

TF [2] = assay: TF on peripheral blood neutrophils, two-color FACS; format: in vivo, mouse; settings: flow cytometry
Method: as §1, with “Protocol.” for “Protocol. TF expression on mouse neutrophils.”, “TF” for “PAR-2”, “rat anti-mTF” for “anti-PAR-2”, “1H1” for “(Santa Cruz Biotechnology, Inc, Santa Cruz, Calif.)”

[3] = tested on: murine model of antiphospholipid syndrome (APS); assay: Fetal resorption in murine model of APS (aPL-treated pregnant mice); format: in vivo; settings: uterus from a mouse treated with aPL+simvastatin, day 15, FIG. 3
Method: Protocol. […] The stock solution was diluted to the appropriate concentration in sterile PBS.
Protocol. Pregnant C57BL/6 mice were treated with IgG (10 mg i.p.) from a healthy non-autoimmune individual (NH-IgG), or different patients with APS (aPL-IgG) on days 8 and 12 of pregnancy. Mice were sacrificed on day 15 of pregnancy, uteri were dissected, fetuses were weighed, and frequency of fetal resorption calculated (number of resorptions/number of fetuses+number of resorptions).
Protocol. Pregnant mice were treated with pravastatin (0.2 μg/g bw=5 μg/mouse, i.p 18 hours prior to aPL or NHIgG injections on days 8 and 12). Pravastatin (Sigma Chemical, St Louis, Mo.) was dissolved in EtOH at a concentration of 10 mg/mL and diluted with NaCl 0.9% in a ratio of 1:1000 to yield a final concentration of 10 μg pravastatin per 1 mL carrier. The NaCl 0.9%-based carrier solution for the placebo group was prepared accordingly to include EtOH only (i.e., without pravastatin) at a concentration of 1:1000.

neutrophils [4] = assay: Phagocytosis assay, latex beads, flow cytometry; format: in vivo, mouse
Method: Phagocytosis assay. Heparanized whole blood was incubated (1 h, 37° C., 5% CO2) with 1 μm of fluorescent yellow-green latex beads (Sigma-Aldrich) (ratio phagocyte/target 1:25) that had been preopsonized with normal mouse serum for 1 h. Internalization of beads was determined by flow cytometry using a FACSCalibur (BD Biosciences) flow cytometer.

TF [5] = assay: SM9-1 trophoblast TF immunohistochemistry with 1H1; format: cell-based, mouse; settings: SM9-1 cells incubated with sFlt-1 or monocyte supernatants, 72 hours; VEGF 500 pg/ml; pravastatin 5 μg/ml 3 hours prior
Method: (§2) Protocol. SM9-1 trophoblast cells, derived from a gestational day 9 Swiss-Webster mouse placenta (SM9-1) (Bowen et al., Biol Reprod 60:428-434.), were incubated with the supernatants from monocytes incubated with C5a containing high levels of sFlt-1 (Girardi et al., 2006, J Exp Med 203:2165-2175). Some SM9-1 cells were incubated in the presence of increasing amounts of mouse sFlt-1 (R&D Systems) (1000, 2000, 4000 and 8000 pg/ml). After 72 hours, cell proliferation was evaluated by light microscopy. Some SM9-1 cells were incubated with pravastatin (5 μg/ml) for 3 hours prior to incubation with sFlt-1. Mouse VEGF (500 pg/ml) (R&D systems) was added to some SM9-1 incubated with sFlt-1 or monocytes supernatants. Immunohistochemical identification of TF with 1H1 and superoxide production by DHE was performed on the SM9-1 cells after 72 hours of culture.
(§3) Protocol. SM9-1 trophoblast cells were prepared as described in Example 21. Isolated SM9-1 cells were incubated in the presence of increasing amounts of mouse sFlt-1 (R&D Systems) (1000, 2000, 4000 and 8000 pg/ml). After 72 hours, cell proliferation was evaluated by light microscopy. SM9-1 cells were also incubated with pravastatin (5 μg/ml) for 3 hours prior to incubation with sFlt-1. Immunohistochemical identification of TF with 1H1 and superoxide production by DHE was performed on the SM9-1 cells after 72 hours of culture as described above.

SM9-1 trophoblast cells [6] = assay: SM9-1 trophoblast cell proliferation, light microscopy; format: cell-based, mouse; settings: SM9-1 cells incubated with sFlt-1 or monocyte supernatants, 72 hours; VEGF 500 pg/ml; pravastatin 5 μg/ml 3 hours prior
Method: as §2, §3

SM9-1 trophoblast cells [7] = assay: SM9-1 trophoblast superoxide production by DHE; format: cell-based, mouse; settings: SM9-1 cells incubated with sFlt-1 or monocyte supernatants, 72 hours; VEGF 500 pg/ml; pravastatin 5 μg/ml 3 hours prior
Method: as §2, §3

monocytes = assay: sFlt-1 release by monocytes in vitro (ELISA); format: cell-based, mouse; settings: 10 nM C5a for 4 h; pravastatin 5 μg/ml for 3 hours prior to C5a
Method: Protocol. Mice with a selective deletion of the TF gene in myeloid cells (TF^floxed/floxed/LysM-Cre mice) (Redecha et al., supra), were used for isolation of monocytes to study sVEGFR-1 production in vitro. Blockade of TF was carried out as in Example 17 by i.p. injections of anti-mTF antibody 1H1.
Protocol. Splenocytes were prepared from non pregnant CBA/J female mice and incubated for 4 h in culture medium supplemented with 10% inactivated fetal bovine serum (FBS). Non adherent cells were removed and adherent cells (>95% peroxidase-positive) were incubated in culture medium with the addition of 10 nM mouse recombinant C5a. A group of adherent monocytes was treated for 3 hours with pravastatin (5 μg/ml) prior to incubation with C5a. After 4 h of incubation with C5a, culture supernatants were collected and analyzed for sVEGFR-1 by ELISA (R&D Systems).

## CCC(C)(C)C(=O)O[C@H]1C[C@@H](C)C=C2C=C[C@H](C)[C@H](CC[C@@H]3C[C@@H](O)CC(=O)O3)[C@H]21 [Simvastatin, simvastatin]
Neutrophils [1]; aPL + Simvastatin
  ROS: 10.4 ± 5.4 % of positive cells
Neutrophils [1]; treatment given alone
  ROS: 10.4 ± 4.5 % of positive cells
PAR-2; aPL + simvastatin
  PAR-2 (number of PAR-2 positive cells): 7.4 ± 3.9
PAR-2; treatment given alone
  PAR-2 (number of PAR-2 positive cells): 6.9 ± 2.3
TF [2]; aPL + Simvastatin
  TF: 10 ± 5.7 % of positive cells
TF [2]; treatment given alone
  TF: 6.6 ± 2.2 % of positive cells
[3]
  viable fetuses in uterus: 7
Neutrophils [4]; aPL + Simvastatin
  Phagocytosis: 16.2 ± 2.9 % of positive cells
Neutrophils [4]; treatment given alone
  Phagocytosis: 18.7 ± 1.0 % of positive cells

## VEGF
TF [5]
  TF staining / expression: prevented TF expression
SM9-1 trophoblast cells [6]
  cell proliferation / cell growth: restored cell proliferation
SM9-1 trophoblast cells [7]
  superoxide production / oxidative damage (DHE): prevented oxidative damage

B1: C5a: mouse recombinant C5a, complement component used to stimulate monocytes (protein, UniProt P06684 679-755, looked up)
C5a anaphylatoxin: NLHLLRQKIEEQAAKYKHSVPKKCCYDGARVNFYETCEERVARVTIGPLCIRAFNECCTIANKIRKESPHKPVQLGR
modifications: C5a anaphylatoxin
notes: mouse recombinant C5a, complement component used to stimulate monocytes
monocytes
  sFlt-1 released by monocytes: 6749 ± 1927 pg/mL

B2: sFlt-1: soluble form of the VEGF-1 receptor, antiangiogenic molecule that sequesters VEGF (R&D Systems) (protein)
chain: YGSGSKLKVPELSLKGTQHVMQAGQTLFLKCRGEAAHSWSLPTTVSQEDKRLSITPPSACGRDNRQFCSTLTLDTAQANHTGLYTCRYLPTSTSKKKKAESSIYIFVSDAGSPFIEMHTDIPKLVHMTEGRQLIIPCRVTSPNVTVTLKKFPFDTLTPDGQRITWDSRRGFIIANATYKEIGLLNCEATVNGHLYQTNYLTHRQTNTILDVQIRPPSPVRLLHGQTLVLNCTATTELNTRVQMSWNYPGKATKRASIRQRIDRSHSHNNVFHSVLKINNVESRDKGLYTCRVKSGSSFQSFNTSVHVYEKGFISVKHRKQPVQETTAGRRSYRLSMKVKAFPSPEIVWLKDGSPATLKSARYLVHGYSLIIKDVTTEDAGDYTILLGIKQSRLFKNLTATLIVNVKPQIYEKSVSSLPSPPLYPLGSRQVLTCTVYGIPRPTITWLWHPCHHNHSKERYDFCTENEESFILDPSSNLGNRIESISQRMTVIEGTNKTVSTLVVADSQTPGIYSCRAFNKIGTVERNIKFYVTDVPNGFHVSLEKMPAEGEDLKLSCVVNKFLYRDITWILLRTVNNRTMHHSISKQKMATTQDYSITLNLVIKNVSLEDSGTYACRARNIYTGEDILRKTEVLVRDSEAPHLLQNLSDYEVSISGSTTLDCQARGVPAPQITWFKNNHKIQQEPGIILGPGNSTLFIERVTEEDEGVYRCRATNQKGAVESAAYLTVQGTSDKSNLE
TF [5]
  TF staining / expression: Increased TF staining
SM9-1 trophoblast cells [6]
  cell proliferation / cell growth: diminished cell proliferation
SM9-1 trophoblast cells [7]
  superoxide production / oxidative damage (DHE): increased superoxide production
